Assay results reported in ChEMBL document CHEMBL1201862, “PubChem BioAssay data set” (2004).
“And” between values parts separate entries of the source, which are not always exact repeats. Identical values can stand only once.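 The compound was tested at five concentrations on cells cultured in 96-well plates, with a 48-hour exposure period. GI50 marks 50% less growth.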 The source made the active and inactive calls. No stated cut-off is given here; in the data, active = GI50 up to about 1.1 µM and inactive = higher.

Legend:
Assay in all cases: NCI-60 cell line screen, 48 h
NCI-H23 = tested on: NCI-H23
SK-OV-3 = tested on: SK-OV-3
MOLT-4 = tested on: MOLT-4
SF-539 = tested on: SF-539
COLO 205 = tested on: COLO 205
MDA-MB-231 = tested on: MDA-MB-231
K562 = tested on: K562
RPMI-8226 = tested on: RPMI-8226
HCC 2998 = tested on: HCC 2998
786-0 = tested on: 786-0
SNB-19 = tested on: SNB-19
IGROV-1 = tested on: IGROV-1
UACC-62 = tested on: UACC-62
NCI-H226 = tested on: NCI-H226
NCI-H522 = tested on: NCI-H522
BT-549 = tested on: BT-549
SR = tested on: SR
HCT-116 = tested on: HCT-116
Hs-578T = tested on: Hs-578T

Measured: GI50

Nc1c(C(=O)c2ccc(Cl)cc2)[nH]c(Nc2ccc(Cl)cc2)c1C(=S)Nc1ccccc1
inactive: NCI-H23 3.3 µM | SK-OV-3 6.52 µM | MOLT-4 9.44 µM | SF-539 5.41 µM | COLO 205 4.13 µM | MDA-MB-231 4.55 µM | K562 3.29 µM | RPMI-8226 14.5 µM | HCC 2998 2.74 µM | 786-0 2.9 µM | SNB-19 4.36 µM | IGROV-1 4.15 µM | UACC-62 13.4 µM | NCI-H226 3.64 µM | NCI-H522 4.83 µM | BT-549 2.93 µM | SR 1.92 µM | HCT-116 3.7 µM

CC(=O)OC1COC(n2c(N)c(C#N)c(C)c(C#N)c2=S)C(OC(C)=O)C1OC(C)=O (stereo not drawn)
inactive: NCI-H23 > 100 µM | SK-OV-3 > 100 µM | SF-539 > 100 µM | MDA-MB-231 > 100 µM | K562 58.9 µM | RPMI-8226 > 100 µM | HCC 2998 75.3 µM | 786-0 > 100 µM | IGROV-1 > 100 µM | UACC-62 66.4 µM | NCI-H226 > 100 µM | NCI-H522 > 100 µM | BT-549 > 100 µM | SR > 100 µM and 54.1 µM

COC(=O)[C@]12CC[C@H]3CN(C(=O)OCc4ccccc4)[C@H]([C@H]31)[C@H](c1ccco1)N2
inactive: NCI-H23 17.3 µM | SK-OV-3 > 100 µM | MOLT-4 19.8 µM | Hs-578T 42.4 µM | SF-539 > 100 µM | COLO 205 20.1 µM | MDA-MB-231 82 µM | K562 30.4 µM | RPMI-8226 27.4 µM | HCC 2998 > 100 µM | 786-0 77.8 µM | SNB-19 > 100 µM | IGROV-1 60.4 µM | UACC-62 23.7 µM | NCI-H226 69.7 µM | NCI-H522 14.1 µM | SR 44.9 µM | HCT-116 40.8 µM

NC1CC(=O)c2cscc21 (stereo not drawn)
inactive: NCI-H23 > 100 µM | SK-OV-3 > 100 µM | MOLT-4 20.6 µM | SF-539 37 µM | COLO 205 20.6 µM | MDA-MB-231 > 100 µM | K562 42.1 µM | RPMI-8226 4.46 µM | 786-0 15.1 µM | SNB-19 53.3 µM | IGROV-1 > 100 µM | BT-549 58.9 µM | HCT-116 67.5 µM

O=C1OC[C@@H]2Cc3c([nH]c4ccccc34)[C@@H](c3ccc(O)cc3)N12
inactive: NCI-H23 19.3 µM | SK-OV-3 > 56.8 µM | MOLT-4 31.3 µM | Hs-578T 88.3 µM | SF-539 24.4 µM | COLO 205 22.4 µM | MDA-MB-231 29.6 µM | K562 32.1 µM | RPMI-8226 35.8 µM | HCC 2998 38.4 µM | 786-0 33.9 µM | SNB-19 54.2 µM | IGROV-1 24.8 µM | UACC-62 29.9 µM | NCI-H226 29 µM | NCI-H522 29.3 µM | SR 39.1 µM | HCT-116 18.7 µM

CCOc1ccc(NC(=O)C(=O)C2C(=O)Nc3ccccc3[S+]2[O-])cc1 (stereo not drawn)
inactive: NCI-H23 > 100 µM | SK-OV-3 > 100 µM | Hs-578T > 100 µM | SF-539 > 100 µM | MDA-MB-231 > 100 µM | RPMI-8226 > 100 µM | 786-0 > 100 µM | IGROV-1 55.6 µM | UACC-62 > 100 µM | NCI-H226 > 100 µM | NCI-H522 > 100 µM | BT-549 > 100 µM | HCT-116 > 100 µM

Cc1cccc(N/C(Sc2ccccc2)=C(/C(Cl)=C(Cl)Cl)[N+](=O)[O-])c1
inactive: NCI-H23 20.1 µM | SK-OV-3 20.5 µM | MOLT-4 21.5 µM | SF-539 16.4 µM | COLO 205 15.6 µM | MDA-MB-231 20.4 µM | K562 20.3 µM | RPMI-8226 30.4 µM | HCC 2998 39.4 µM | 786-0 16.9 µM | SNB-19 28.7 µM | UACC-62 20.3 µM | NCI-H226 16.6 µM | BT-549 20.4 µM | HCT-116 15.3 µM

O=C1O/C(=C(/Cl)c2cccc3ccccc23)c2ccccc21
inactive: NCI-H23 > 100 µM | SK-OV-3 > 100 µM | MOLT-4 > 100 µM | Hs-578T 32.4 µM | SF-539 > 100 µM | COLO 205 > 100 µM | K562 > 100 µM | RPMI-8226 > 100 µM | HCC 2998 > 100 µM | 786-0 82.2 µM | SNB-19 > 100 µM | IGROV-1 > 100 µM | UACC-62 > 100 µM | NCI-H522 52.1 µM | BT-549 > 100 µM | SR > 100 µM | HCT-116 > 100 µM

C/N=C(\Nc1cccc(C(F)(F)F)c1)SCc1ccc(N=C=S)cc1
inactive: NCI-H23 16.3 µM | SK-OV-3 20.2 µM | MOLT-4 11.5 µM | Hs-578T 14.7 µM | SF-539 17.5 µM | COLO 205 16.6 µM | MDA-MB-231 11.2 µM | K562 20 µM | RPMI-8226 5.92 µM | HCC 2998 15.6 µM | 786-0 16.4 µM | SNB-19 14.9 µM | IGROV-1 16.4 µM | UACC-62 11.8 µM | NCI-H226 19.8 µM | NCI-H522 10.4 µM | SR 4.34 µM | HCT-116 15.5 µM

CC(C)C1=CC(=O)[C@@](C)(C2[C@H](O)C[C@@]3(C)[C@@H]4CC=C5[C@@H](CC[C@@H](OC6OCC(O)C(O)C6OC6OC(C)C(O)C(O)C6O)C5(C)C)[C@]4(C)C(=O)C[C@]23C)O1 (stereo partly drawn)
inactive: NCI-H23 > 100 µM | SK-OV-3 > 100 µM | MOLT-4 > 100 µM | Hs-578T > 100 µM | COLO 205 > 100 µM | MDA-MB-231 > 100 µM | K562 > 100 µM | RPMI-8226 > 100 µM | HCC 2998 > 100 µM | 786-0 > 100 µM | SNB-19 > 100 µM | IGROV-1 > 100 µM | UACC-62 > 100 µM | NCI-H226 > 100 µM | NCI-H522 > 100 µM | BT-549 > 100 µM | HCT-116 > 100 µM

FC1CCN(C2(c3cccs3)CCCCC2)CC1
inactive: NCI-H23 > 100 µM | SK-OV-3 > 100 µM | MOLT-4 > 100 µM | COLO 205 > 100 µM | MDA-MB-231 > 100 µM | K562 > 100 µM | RPMI-8226 56.5 µM | HCC 2998 27.2 µM | 786-0 > 100 µM | SNB-19 > 100 µM | IGROV-1 > 100 µM | UACC-62 > 100 µM | NCI-H226 > 100 µM | NCI-H522 > 100 µM | BT-549 > 100 µM | HCT-116 > 100 µM

CCc1nnc(CC)n1NCCCC(=O)O
inactive: NCI-H23 > 100 µM | SK-OV-3 > 100 µM | MOLT-4 > 100 µM | SF-539 > 100 µM | COLO 205 > 100 µM | MDA-MB-231 > 100 µM | K562 > 100 µM | RPMI-8226 > 100 µM | HCC 2998 > 100 µM | 786-0 > 100 µM | SNB-19 > 100 µM | IGROV-1 > 100 µM | UACC-62 > 100 µM | NCI-H522 > 100 µM | BT-549 > 100 µM | SR > 100 µM | HCT-116 > 100 µM

O=C1c2n[nH]nc2C(=O)c2n[nH]nc21
inactive: NCI-H23 > 100 µM | SK-OV-3 > 100 µM | MOLT-4 > 100 µM | Hs-578T > 100 µM | SF-539 > 100 µM | COLO 205 > 100 µM | MDA-MB-231 > 100 µM | K562 > 100 µM | RPMI-8226 > 100 µM | HCC 2998 > 100 µM | 786-0 > 100 µM | SNB-19 > 100 µM | IGROV-1 > 66.4 µM | UACC-62 > 100 µM | NCI-H226 > 39.2 µM | NCI-H522 > 100 µM | SR > 100 µM | HCT-116 > 100 µM

CN(CCCNC(=O)c1n[nH]c2c1ccc1ccccc12)CCCNC(=O)c1n[nH]c2c1ccc1ccccc12
inactive: NCI-H23 17.9 µM | SK-OV-3 18.1 µM | MOLT-4 10.4 µM | Hs-578T 16.8 µM | SF-539 11 µM | COLO 205 2.69 µM | MDA-MB-231 10.9 µM | HCC 2998 1.9 µM | 786-0 10.9 µM | SNB-19 18.8 µM | IGROV-1 16.5 µM | UACC-62 9.91 µM | NCI-H226 13.4 µM | NCI-H522 16.8 µM | BT-549 15.6 µM | HCT-116 12.7 µM

O=C(CSCC(=O)N/N=C/c1ccccc1)N/N=C\c1ccccc1
inactive: NCI-H23 > 100 µM | SK-OV-3 > 100 µM | MOLT-4 68.2 µM | Hs-578T > 100 µM | SF-539 81.3 µM | COLO 205 > 100 µM | MDA-MB-231 > 100 µM | K562 > 100 µM | RPMI-8226 38.1 µM | 786-0 > 100 µM | SNB-19 > 100 µM | IGROV-1 > 100 µM | UACC-62 > 100 µM | NCI-H226 > 100 µM | NCI-H522 > 100 µM | BT-549 2.2 µM | HCT-116 > 100 µM

CC(C)CC(NC(=O)C(CCI)Cc1ccccc1)C(=O)Nc1ccccc1 (stereo not drawn)
inactive: NCI-H23 49 µM | SK-OV-3 > 100 µM | MOLT-4 26.7 µM | SF-539 > 100 µM | COLO 205 95.9 µM | MDA-MB-231 > 100 µM | K562 44.6 µM | RPMI-8226 36.9 µM | HCC 2998 > 100 µM | 786-0 > 100 µM | SNB-19 98.2 µM | IGROV-1 51.1 µM | UACC-62 > 100 µM | NCI-H226 58.6 µM | NCI-H522 27.7 µM | BT-549 10.8 µM | SR 22.8 µM | HCT-116 43.4 µM
